For data set [1] the following is noted: 101.3 kPa, Liquid, Vibrating tube method.
Data set [2] is described as follows: xn = mol fraction of the nth substance listed. The note with it: 101 kPa, Liquid, Vibrating tube method.

Numbers after ± are expanded uncertainties.

In the case of `CC(C)CC(C)(C)C` [2,2,4-trimethylpentane], the mass density in data set [1] (298.2 K) is given as 687.721 ± 0.28 kg/m3; in data set [1] (313.2 K), 675.225 ± 0.29 kg/m3.
Consider `CCCCCCCCC` [nonane], for which, in data set [1] (298.2 K), the mass density is recorded as 713.938 ± 0.36 kg/m3.
With `CCCCCCCCCCCC` [dodecane], the figures for the mass density in data set [1] (298.2 K) and in data set [1] (313.2 K) were 745.15 ± 0.24 kg/m3 and 734.325 ± 0.24 kg/m3, respectively.
Take `C1CCCCC1` [cyclohexane]: the mass density in data set [1] (298.2 K) is 773.849 ± 0.27 kg/m3.
Take `CCCCCCCCCC` [decane]: the mass density in data set [1] (298.2 K) came to 726.1 ± 0.4 kg/m3; in data set [1] (313.2 K), 714.726 ± 0.35 kg/m3.
In the same order, the values of `CCCCCCCCCCC` [undecane] are 736.786 ± 0.34 kg/m3 and 725.693 ± 0.35 kg/m3.
Take `CCCCCC` [hexane]: the mass density in data set [1] (298.2 K) is on record as 655.039 ± 2.1 kg/m3.
For the compound `CCCCCCCC` [octane], the mass density in data set [1] (298.2 K) stood at 698.569 ± 1.4 kg/m3; in data set [1] (313.2 K), 686.365 ± 1.3 kg/m3.
`CCCCCCC` [heptane]: the mass density in data set [1] (298.2 K) is on record as 679.857 ± 0.36 kg/m3.
In the case of `Cc1cccc2c1sc1ccccc12` [4-methyldibenzothiophene] + CCCCCCCCCCCC, the mass density was 747.197 ± 0.24 kg/m3 in data set [2] (298.2 K, x1 = 0.0062); 749.098 ± 0.24 kg/m3 in data set [2] (298.2 K, x1 = 0.012); 751.069 ± 0.24 kg/m3 in data set [2] (298.2 K, x1 = 0.018); 753.104 ± 0.25 kg/m3 in data set [2] (298.2 K, x1 = 0.0242); 755.131 ± 0.25 kg/m3 in data set [2] (298.2 K, x1 = 0.0302); 762.606 ± 0.26 kg/m3 in data set [2] (298.2 K, x1 = 0.0526). Also, the mass density in data set [2] (298.2 K, x1 = 0.0863) was 774.082 ± 0.28 kg/m3; in data set [2] (298.2 K, x1 = 0.133), 790.24 ± 0.32 kg/m3; in data set [2] (313.2 K, x1 = 0.0062), 736.26 ± 0.25 kg/m3; in data set [2] (313.2 K, x1 = 0.012), 738.169 ± 0.25 kg/m3; in data set [2] (313.2 K, x1 = 0.018), 740.129 ± 0.25 kg/m3; in data set [2] (313.2 K, x1 = 0.0242) it was 742.156 ± 0.25 kg/m3. Moreover, the mass density was 744.204 ± 0.25 kg/m3 in data set [2] (313.2 K, x1 = 0.0302); 751.621 ± 0.26 kg/m3 in data set [2] (313.2 K, x1 = 0.0526); 763.057 ± 0.28 kg/m3 in data set [2] (313.2 K, x1 = 0.0863); 777.581 ± 0.32 kg/m3 in data set [2] (313.2 K, x1 = 0.133); 827.245 ± 0.51 kg/m3 in data set [2] (313.2 K, x1 = 0.2685).
Consider `c1ccc2c(c1)sc1ccccc12` [dibenzothiophene] + CC(C)CC(C)(C)C, for which the mass density in data set [2] (298.2 K, x1 = 0.0025) was determined as 689.019 ± 0.28 kg/m3; in data set [2] (298.2 K, x1 = 0.005), 690.292 ± 0.28 kg/m3; in data set [2] (298.2 K, x1 = 0.0127), 694.21 ± 0.28 kg/m3; in data set [2] (298.2 K, x1 = 0.0149), 695.329 ± 0.28 kg/m3; in data set [2] (313.2 K, x1 = 0.0025), 676.548 ± 0.29 kg/m3; in data set [2] (313.2 K, x1 = 0.003), 676.845 ± 0.29 kg/m3. In addition, the mass density in data set [2] (313.2 K, x1 = 0.005) amounted to 677.841 ± 0.29 kg/m3; in data set [2] (313.2 K, x1 = 0.0063), 678.505 ± 0.29 kg/m3; in data set [2] (313.2 K, x1 = 0.0149) it was 683.13 ± 0.28 kg/m3.
Regarding `c1ccc2c(c1)sc1ccccc12` [dibenzothiophene] + CCCCCCCCC, the mass density was determined as 715.374 ± 0.35 kg/m3 in data set [2] (298.2 K, x1 = 0.0032); 716.447 ± 0.35 kg/m3 in data set [2] (298.2 K, x1 = 0.0057); 717.097 ± 0.35 kg/m3 in data set [2] (298.2 K, x1 = 0.0072); 720.427 ± 0.35 kg/m3 in data set [2] (298.2 K, x1 = 0.0147); 723.475 ± 0.35 kg/m3 in data set [2] (298.2 K, x1 = 0.0216); 726.668 ± 0.35 kg/m3 in data set [2] (298.2 K, x1 = 0.0287). Also, the mass density in data set [2] (298.2 K, x1 = 0.0343) was 729.068 ± 0.36 kg/m3; in data set [2] (313.2 K, x1 = 0.0032) it was 703.613 ± 0.35 kg/m3; in data set [2] (313.2 K, x1 = 0.0057), 704.689 ± 0.35 kg/m3; in data set [2] (313.2 K, x1 = 0.0072) it was 705.41 ± 0.35 kg/m3; in data set [2] (313.2 K, x1 = 0.0147), 708.85 ± 0.35 kg/m3; in data set [2] (313.2 K, x1 = 0.0216), 711.795 ± 0.36 kg/m3. Moreover, the mass density was found to be 715.175 ± 0.36 kg/m3 in data set [2] (313.2 K, x1 = 0.0287) and 717.135 ± 0.36 kg/m3 in data set [2] (313.2 K, x1 = 0.0343).
`CCCCC` [pentane]: the mass density in data set [1] (298.2 K) is listed as 624.932 ± 0.3 kg/m3.

A word on the mass density: it is mass per unit of volume.
